For series [1], the system named is Hep 3B xenografts. Nature of the series: Hep3B hepatocellular carcinoma xenograft in SCID mice. The format is in vivo. The procedure: The effects of Compound 585 were evaluated on tumor growth using a Hep3B hepatocellular carcinoma xenograft model in SCID mice. Hep 3B (ATCC […]) hepatocellular carcinoma cells were obtained from ATCC. These cells were grown in DMEM medium supplemented with 10% fetal bovine serum and 1% penicillin and streptomycin. Cells were sub-cultured by dilution at a ratio of 1:4. Hep3B cells were harvested by centrifugation and counted using a hemocytometer. Cells were resuspended in PBS at a 5×10^7 cells per mL. Cells were placed on ice, then mixed with an equal volume of Matrigel™ (BD Biosciences CB-40234). This mixture was kept on ice and injected into the left flank of mice in a volume of 0.2 mL, equivalent to 5×10^6 cells per mouse. Thirty-two (32) SCID mice were inoculated subcutaneously in the left flank with 5×10^6 Hep 3B cells. Treatment was initiated when the tumors reached a mean volume of 103.7 mm3 (standard deviation±30 mm^3, range 17-183 mm^3). Mice were allocated to four (4) groups of eight (8) mice such that mean tumor volume in each group was within the range of 95 to 104 mm^3. Mice were treated with vehicle, standard of care control (doxorubicin), or Compound 585. With the exception of doxorubicin (which was given IP), all compounds were given by oral gavage. […] Animal weights and conditions were recorded daily, and tumors were measured on Mondays, Wednesdays and Fridays.

For series [2], the system named is normal cells. The series is described as follows: 72-hour MTT cell proliferation assay, summary over the normal cell lines tested. The format is cell-based. The following applies: normal cells (n=10): NHDF, 3T3, NHEK, IMR-90, PBMC, ARPE-19, HS738.st, WI-38, MRC-5, RWPE-1. The protocol:
The MTT cell proliferation assay was used to study the cytotoxic properties of the compounds. The assay was performed according to the method described by Roche Molecular Biochemicals, with minor modifications. The assay is based on the cleavage of the tetrazolium salt, MTT, in the presence of an electron-coupling reagent. The water-insoluble formazan salt produced must be solubilized in an additional step. Cells grown in a 96-well tissue culture plate were incubated with the MTT solution for approximately 4 hours. After this incubation period, a water-insoluble formazan dye formed. After solubilization, the formazan dye was quantitated using a scanning multi-well spectrophotometer (ELISA reader). […] The cells were seeded at 5,000-10,000 cells in each well of 96-well plate in 100 μL of fresh culture medium and were allowed to attach overnight. The stock solutions of the compounds were diluted in 100 μL cell culture medium to obtain eight concentrations of each test compound, ranging from 1 nM to 30 μM. […] All optical densities were measured at 490 nm using a Vmax Kinetic Microplate Reader (Molecular Devices). In most cases, the assay was performed in duplicate and the results were presented as a mean percent inhibition to the negative control±SE. The following formula was used to calculate the percent of inhibition: Inhibition (%)=(1−(ODo/OD))×100. […]

For series [3], the system named is NCI-H820 cells. Nature of the series: MTT cell proliferation assay. The conditions noted are these: 72-hour MTT. It is filed as cell-based. A digest of the protocol:
(§1)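 After overnight attachment at 5,000-10,000 cells per well, cultures receive test compound at eight levels (1 nM to 30 μM) for 72 h, followed by roughly 4 h with MTT. Dissolved formazan is quantified at 490 nm, giving percent inhibition against untreated control.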
Background: Tetrazolium dyes change colour on reduction, which living cells bring about.

Series [4] relates to Daudi cells. Nature of the series: MTT cell proliferation assay. The format is cell-based. The conditions noted are these: Homo sapiens, 72-hour MTT. Put shortly:
as §1

Series [5] relates to U-266 cells. Nature of the series: MTT cell proliferation assay. It is filed as cell-based. The following applies: Homo sapiens, 72-hour MTT. A digest of the protocol: as §1
In series [6] the test system is HuCCT-1 cells. Nature of the series: MTT cell proliferation assay. The conditions noted are these: Homo sapiens, 72-hour MTT. The format is cell-based. A digest of the protocol: as §1
Series [7] concerns RKO cells. Nature of the series: MTT cell proliferation assay. The following applies: Homo sapiens, 72-hour MTT. The format is cell-based. Put shortly: as §1
For series [8], the system named is MOLT4 cells. Nature of the series: MTT cell proliferation assay. It is filed as cell-based. The following applies: Homo sapiens, MOLT-4, 72-hour MTT. Put shortly:
as §1

In series [9] the test system is ANBL-6 cells. The series is described as follows: MTT cell proliferation assay. It is filed as cell-based. The conditions noted are these: Homo sapiens, 72-hour MTT. Put shortly: as §1
Series [10] concerns IMR-90 cells. Nature of the series: MTT cell proliferation assay. The format is cell-based. The conditions noted are these: Homo sapiens, 72-hour MTT. Put shortly: as §1
In series [11] the test system is NCI-H2122 cells. Nature of the series: MTT cell proliferation assay. The format is cell-based. The following applies: Homo sapiens, 72-hour MTT. A digest of the protocol: as §1
For series [12], the system named is MHCC97H cells. Nature of the series: MTT cell proliferation assay. The format is cell-based. The following applies: Homo sapiens, 72-hour MTT. Put shortly:
as §1

For series [13], the system named is Jurkat cells. Nature of the series: MTT cell proliferation assay. The format is cell-based. The following applies: Homo sapiens, 72-hour MTT. Put shortly:
as §1

Series [14] concerns BT-474 cells. Nature of the series: MTT cell proliferation assay. It is filed as cell-based. The following applies: Homo sapiens, 72-hour MTT. A digest of the protocol: as §1
Series [15] deals with RPMI8226 cells. The series is described as follows: MTT cell proliferation assay. The following applies: Homo sapiens, RPMI-8226; RPMI8226 cells; 72-hour MTT; read-out: RPMI8226 MTT IC50. The format is cell-based.
Series [16] relates to HL-60 cells. Nature of the series: MTT cell proliferation assay. It is filed as cell-based. The conditions noted are these: Homo sapiens; HL-60 cells; 72-hour MTT; read-out: HL-60 MTT IC50.
Series [17] has as its system Hep G2 cells. Nature of the series: MTT cell proliferation assay. It is filed as cell-based. The conditions noted are these: Homo sapiens, HepG2; Hep G2 cells; 72-hour MTT; read-out: Hep G2 MTT IC50.
Series [18] has as its system HEP 3B cells. The series is described as follows: MTT cell proliferation assay. It is filed as cell-based. The following applies: Homo sapiens, Hep3B; HEP 3B cells; 72-hour MTT; read-out: HEP 3B MTT IC50.

Experimental findings from US12331040B2 (Karyopharm Therapeutics Inc., priority 2013, dated 2025) are described below.

Molecules are shown by their SMILES. Where only a bound is given, the exact number is not on record here.

As usually defined, the IC50 is the concentration that gives 50% inhibition.

In the case of `Nc1ccc(/C=C/C(=O)NCc2cc3cc(-c4ccc(C(=O)N5CCC(F)(F)CC5)cn4)cc(C(F)(F)F)c3o2)cn1` [Compound 585, (E)-3-(6-aminopyridin-3-yl)-N-((5-(5-(4,4-difluoropiperidine-1-carbonyl)pyridin-2-yl)-7-(trifluoromethyl)benzofuran-2-yl)methyl)acrylamide], the “toxicity (side effects, weight loss)” value in [1] (Hep 3B xenograft model, minimal or no side effects or weight loss up to 200 mg/kg daily dose) is “without major toxicity”. For the same molecule, the “mean tumor volume of Hep 3B xenografts” value in series [1] (SCID mice, 20 or 60 mg/kg PO daily) is “tumor growth inhibition”. Besides, the “inhibition of normal cells” value in [2] is on record as “did not inhibit”. Further, the IC50 in [3] came out at 2840 nM; in series [4] it was 40 nM; in series [5], 310 nM; in series [6], 60 nM; in series [7], 50 nM; in series [8] it was 40 nM. Besides, the IC50 in series [9] was 1010 nM; in series [10] it was 4000 nM; in series [11], 5810 nM; in [12], > 10000 nM; in series [13], 40 nM; in [14] it was 6470 nM. For the same molecule, the IC50 turned out to be 150 nM in series [15], 210 nM in series [16], 160 nM in [17] and 70 nM in series [18].
